The nature of series [1]: Partition coefficient (log Po/w) of n-butanol/water. As to conditions: n-butanol/water two-phase system. It is filed as physicochemical. An excerpt:
The fluorescent contrast agent to be used in a living body should be particularly water soluble. […] For easy synthesis, the number of the sulfonic acid groups is not more than 10, preferably not more than 8. The improvement in the water solubility can be determined by measuring partition coefficient of each compound, which for example, may be measured in a two-phase system of butanol/water. More specifically, introduction of 3 or more sulfonic acid groups results in a partition coefficient log Po/w of n-butanol/water of not more than −1.00.

Another series deals with mice. As to the kind of experiment: Acute toxicity. In kind it is in vivo. The settings on record: intravenous injection from tail vein, conscious mice, monitored for 3 days. The protocol:
Reduction of toxicity by the introduction of sulfonic acid group and reduction thereof by conversion into sodium salt were studied.
Each test compound was dissolved in distilled water to give a compound solution. This solution was intravenously injected to the conscious mice from the tail vein. The mice were monitored for 3 days after the administration, and acute toxicity [LD50 (mg/kg body weight)] was estimated.

With `CC1(C)C(=CC=CC2=[N+](CCCS(=O)(=O)[O-])c3ccccc3C2(C)C)N(CCCS(=O)(=O)[O-])c2ccccc21.[Na+]` [NK-1967], the “log Po/w (butanol/water)” value in series [1] was 0.34. In addition, the LD50 in the series with mice worked out at 20 mg/kg body weight.

The values above are taken from patent publication US7488468B1, “Near infrared fluorescent contrast agent and fluorescence imaging” (Schering AG, priority 1998, dated 2009).
